In patent US20240300945A1, “CLY SERIES COMPOUND, PREPARATION METHOD THEREFOR AND USE THEREOF IN PREPARATION OF DRUGS” (NANJING WELLBEST PHARMACEUTICAL CO., LTD, priority 2021, published 2024):
Marks after values point to notes of the source that are not given here.

Assays:
rabbit ear acne model [1] = test: Rabbit ear acne model: macroscopic observation and histological grading; assay type: in vivo, New Zealand rabbits; conditions: right ear, 10 per group; for number of rabbits with acne histological grading 2+: Grade 2; for number of rabbits with acne histological grading —: Level 0, without acne; for number of rabbits with acne histological grading 1+: Level 1; for number of rabbits with acne histological grading 3+: Level 3
Text: (1) Preparation method of treatment cream: The excipient matrix components included methyl silicone oil (15%), stearic acid (6%), white vaseline (5%), liquid paraffin (5%), octadecanol (5%), glycerin (20%), alkyl aryl polyglycol ether (1%), fatty alcohol polyoxyethylene ether (1%), […] (1%), ethyl paraben (0.1%), distilled water (about 31-55%), and mixed with appropriate amount of CLY series compounds to form a mixed emulsion. The emulsion matrix used in this embodiment refers to the matrix component after the active ingredient was removed from the emulsion.
(2) Positive therapeutic drug: 0.1% adapalene gel (Trade name: Differin, produced by Laboratoires Galderma, France).
(§1) New Zealand rabbits were, according to weights, randomly divided into the model control group (applied cream matrix), positive treatment group (applied Differin on the skin), CLY-1 external treatment group (0.25% CLY-1 cream on the skin), CLY-2 external treatment group (0.25% CLY-2 cream on the skin), CLY-3 external treatment group (0.25% CLY-3 cream on the skin), CLY-4 external treatment group (0.25% CLY-4 cream on the skin) CLY-8 external treatment group (0.25% CLY-8 cream on the skin), CLY-9 external treatment group (0.25% CLY-9 cream on the skin), CLY-11 external treatment group (0.25% CLY-11 cream on the skin), CLY-19 external treatment group (0.25% CLY-19 cream on the skin), CLY-36 external treatment group (0.25% CLY-36 cream on the skin); CLY-1 intravenous injection group (1 mg/kg·d), CLY-2 intravenous injection group (1 mg/kg·d), CLY-3 intravenous injection group (1 mg/kg·d), CLY-4 intravenous injection group (1 mg/kg·d), CLY-8 intravenous injection group (1 mg/kg·d), CLY-9 intravenous injection group (1 mg/kg·d), CLY-11 intravenous injection group (1 mg/kg·d), CLY-19 intravenous injection group (1 mg/kg·d), and CLY-36 intravenous injection group (1 mg/kg·d), with 10 in each group. Took the inner side of the rabbit's right ear for depilation treatment as the observation area, and the inner side of the left ear of all rabbits as their own negative control, and applied 95% alcohol. The inner side of the right ear of the model group and the treatment group were both coated with 2% coal tar (Alfa Aesar China, which used 95% alcohol to prepare 2% coal tar solution), and evenly applied the sterile cotton swab to the opening of the ear duct on the inner side of the rabbit's ear within the range of about 2 cm×2 cm, once a day, 0.5 mL each time, and wiped the previous application site with warm water for 14 consecutive days to establish the acne micro-pigmentation model. Visually observed the changes of local skin, including ear thickness, hardness, roughness, and whether there was a black angle plug at the hair follicle mouth. 18 hours after the last application, the sample was sacrificed and skin was taken. The skin tissue was taken from the application site by using a 5 mm punch, fixed with 10% formaldehyde, embedded in paraffin, and stained with HE. The histopathological observation and analysis were carried out.
The histological grading criteria of the acne model: 3 grades according to histological grade. […] The tight keratin embolism in the hair follicles causes severe expansion of the hair follicles, obvious hyperplasia of the sebaceous duct epithelium, skin bulges and scars, and some sebaceous glands degenerate “3±”.
(§2) SPSS16 software was used for statistical analysis. The paired t-test was used for the left and right self-contrast, and the t-test was used for the comparison between the groups, P<0.05 was statistically significant.

rabbit ear acne model [2] = test: Rabbit ear acne model: epidermal thickness, hair follicle area, sebaceous gland diameter; assay type: in vivo, New Zealand rabbits; conditions: rabbit right ear
Text: as §1
The histopathological changes were observed under the microscope, and the thickness of five different epidermises on a slice was measured with the Biomias99 image analysis system, and the average value was calculated; Detected the area of the two hair follicles and the diameter of the four sebaceous glands with the same position and the most complete structure in the four sections, calculated their average values, and then subtracted the data of the left and right external auditory canal of the rabbits in each group to obtain the difference in the thickness of the left and right ear epidermis, the difference in the area of the hair follicles and the difference in the diameter of the sebaceous glands.
as §2

serum IL-4 = test: Mouse eczema model: serum IL-4 (ELISA); assay type: in vivo, C57BL/6 mice; conditions: after modeling, 0.1% cream for external use twice a day, 10 days (positive: aloxone)
Text: SPF grade female C57BL/6 mice were purchased at the age of 8 weeks (0.02 kg), 6 in each group, and randomly divided into the blank control group, model group, positive drug group, CLY-1 treatment group (0.1% CLY-1 cream for external use), CLY-2 treatment group (0.1% CLY-2 cream for external use), CLY-3 treatment group (0.1% CLY-3 cream for external use), CLY-4 treatment group (0.1% CLY-4 cream for external use), CLY-8 treatment group (0.1% CLY-8 cream for external use), CLY-11 treatment group (0.1% CLY-11 cream for external use) CLY-19 treatment group (0.1% CLY-19 cream for external use), CLY-36 treatment group (0.1% CLY-36 cream for external use) and CLY-39 treatment group (0.1% CLY-39 cream for external use).
Model establishment: the normal control group mice were smeared with 75% ethanol 14.3 ul on both ears, while the model group, positive drug group and treatment group were smeared with 1 nmol/L carpotriol liniment 14.3 ul on both ears at a regular time every day, and then smeared with 20 g/L OVA 25 ul after air drying, once a day, for 12 days to make a model.
From 4 days after the start of modeling, applied the cream matrix on the ear skin of mice in the blank control group and the model group, applied aloxone on the ear skin of mice in the positive drug group, and applied the treatment cream on the ear skin of mice in each treatment group respectively, twice a day in the morning and evening, for 10 consecutive days, took photos every day, and recorded scores.
The thickness of mouse auricle was measured and recorded with ear thickness measuring instrument before and on the 14th day respectively. After the measurement on the 14th day, the mice were sacrificed. Blood was taken and serum was separated.
The enzyme-labeled plate was coated with rabbit anti-mouse interleukin (IL)-4 antibody, stayed at 4° C. overnight, and the reaction was stopped according to the instructions of the ELISA kit to detect the level of serum IL-4. ELISA kits were all purchased from Raybiotech, USA.

[3] = external use (0.25% CLY cream; positive: Differin)
[4] = intravenous injection 1 mg/kg·d

Row | Compound | number of rabbits with acne histological grading 2+ (rabbit ear acne model [1]; [3]) | number of rabbits with acne histological grading 2+ (rabbit ear acne model [1]; [4]) | number of rabbits with acne histological grading — (rabbit ear acne model [1]; [3]) | number of rabbits with acne histological grading — (rabbit ear acne model [1]; [4]) | number of rabbits with acne histological grading 1+ (rabbit ear acne model [1]; [3]) | number of rabbits with acne histological grading 1+ (rabbit ear acne model [1]; [4]) | number of rabbits with acne histological grading 3+ (rabbit ear acne model [1]; [3]) | number of rabbits with acne histological grading 3+ (rabbit ear acne model [1]; [4]) | epidermal thickness (rabbit ear acne model [2]; [3]) [mm] | hair follicle area (rabbit ear acne model [2]; [3]) | sebaceous gland diameter (rabbit ear acne model [2]; [3]) [mm] | epidermal thickness (rabbit ear acne model [2]; [4]) [mm] | hair follicle area (rabbit ear acne model [2]; [4]) | sebaceous gland diameter (rabbit ear acne model [2]; [4]) [mm] | IL-4 level in peripheral blood (serum IL-4) [pg/mL]
1 | O=C(c1ccc(-c2ccccc2-c2nnn[nH]2)cc1)N(c1ncccc1Cl)[C@@H]1CCCNC1 [CLY-19] | 3 | 1 | 5 | 8 | 2 | 1 | 0 | 0 | 0.2365 ± 0.0181 | 0.2766 ± 0.0953* mm^2 | 0.0795 ± 0.0398 | 0.2276 ± 0.0165 | 0.2235 ± 0.0843* mm^2 | 0.0523 ± 0.0316 | 5.72
2 | O=C(c1ccc(-c2ccccc2Cl)cc1)N(c1ncccc1Cl)[C@@H]1CCCNC1 [CLY-36] | 4 | 2 | 5 | 7 | 1 | 1 | 0 | 0 | 0.2387 ± 0.0186 | 0.2773 ± 0.0945* mm^2 | 0.0805 ± 0.0406 | 0.2282 ± 0.0171 | 0.2241 ± 0.0846* mm^2 | 0.0536 ± 0.0319 | 5.86
3 | Nc1ccccc1-c1ccc(C(=O)N(c2ncccc2Cl)[C@@H]2CCCNC2)cc1 [CLY-39] | 1 | 1 | 6 | 7 | 3 | 2 | 0 | 0 | 0.2312 ± 0.0152 | 0.2315 ± 0.0662* mm^2 | 0.0716 ± 0.0323 | 0.2056 ± 0.0156 | 0.2056 ± 0.0762* mm^2 | 0.0531 ± 0.0306 | 5.75
